Laboratory results taken from patent publication US20110206781A1, “METHOD TO MODULATE HEMATOPOIETIC STEM CELL GROWTH” (priority 2008, published 2011).

Columns and labels:
[1] = test system: nos1; test: blastula transplantation of cmyb:GFP donor cells into lmo2:dsRed recipients; assay type: in vivo, zebrafish; conditions: 36 hpf, p=0.0065
Procedure: Blastula Transplantation: cmyb: GFP embryos were injected with nos1 or control MO at the one-cell stage. At the blastula stage, 100 cells were removed from the donor embryo and transplanted into stage-matched recipients. Embryos were analyzed by confocal microscopy at 36 hpf.
(§1) Morpholino injection: Morpholino antisense oligonucleotides (MO; GENETOOLS, LLC, Philomath, Oreg.) designed against the ATG and exonl splice sites of nos1 (5′-[…] [SEQ. ID NO:1]; 5′-[…] [SEQ ID NO:2), nos2 (5′-[…] [SEQ ID NO:3]; 5′-[…] [SEQ ID NO:4]), and mismatched controls were injected into one-cell-stage embryos.

[2] = test system: HSCs; test: in vivo confocal imaging of HSC number in cmyb:GFP; lmo2:dsRed embryos; parameters: species or system zebrafish; conditions: lmo2:dsRed reporter fish, p<0.001, n=5
Procedure: Confocal Microscopy: Fluorescent reporter embryos were exposed to blood flow modulators (10 μM, unless otherwise noted) as indicated, live embedded in 1% agarose, and imaged with a Zeiss LSM510 Meta confocal microscope at 36 hpf (North et al., 2007) or a Perkin Elmer UltaVIEW VoX spinning disk confocal microscope.

[3] = test system: runx1/cmyb+ HSCs in the zebrafish AGM; test: runx1/cmyb in situ hybridization for HSC formation in zebrafish embryos at 36 hpf; assay type: in vivo; parameters: effect on HSC formation at 36 hpf when treatment occurred before the onset of heartbeat: dose or concentration left out as unconfirmed
Source text: In Situ Hybridizataion: Paraformaldehyde-fixed embryos were processed for in situ hybridization according to standard zebrafish protocols. Such protocols are available on-line through the The Zebrafish Model Organism Database. The following RNA probes were used: runx1, cmyb, flk1, ephrinB2, flt4, globin, mpo, mhc, and foxa3. Changes in expression compared to WT controls are reported as the number altered/number scored per genotype/treatment (North et al., 2007); a minimum of three independent experiments was conducted per analysis.
Chemical Exposure: Zebrafish embryos were exposed to chemicals at the doses indicated; dimethyl sulfoxide (DMSO) carrier content was 0.1%. For evaluation of HSC development, exposure ranged from early somitogenesis (5+ somites) until 36 hpf, unless otherwise noted.
as §1

Compound: nos1 ATG MO: morpholino antisense oligonucleotide against the ATG site of nos1, 5′-ACGCTGGGCTCTGATTCCTGCATTG, SEQ ID NO:1 (all phosphorodiamidate morpholino (PMO))
- donor cell contribution to GFP+ HSC formation in transplanted embryos [1]: none

Compound: CC(=O)N[C@H](C(=O)O)C(C)(C)SN=O [SNAP, S-nitroso-N-acetyl-penicillamine]
- HSC number by confocal microscopy [2]: increased HSC numbers
- effect on HSC formation at 36 hpf when treatment occurred before the onset of heartbeat ([3]; exposure 10 somites-23 hpf): capable of enhancing HSC number

Compound: N=C(N)NCCC[C@H](N)C(=O)O [L-arg, L-arginine]
- effect on the sih hematopoietic defect (runx1/cmyb), in words ([3]; sih−/− embryos, 36 hpf): rescued the sih hematopoietic defect
- effect on HSCs (runx1/cmyb), in words ([3]; wild-type embryos, 36 hpf, bradykinin 10 μM): increased HSCs
